Laboratory results: ChEMBL document CHEMBL4811316, “Larvicidal activity and in silico studies of cinnamic acid derivatives against Aedes aegypti (Diptera: Culicidae)” (Bioorg Med Chem, 2021)
Values after ≈ are worked out from the molar mass of the structure shown.

How the values were obtained:
[1] = Larvicidal activity against Aedes aegypti assessed as mortality at 45 ug/ml measured after 24 hrs relative to control; assay type: ADME; settings: at 45 µg/mL
[2] = Larvicidal activity against Aedes aegypti 4th instar larvae measured after 48 hrs; assay type: ADME
[3] = Larvicidal activity against Aedes aegypti assessed as mortality at 100 ug/ml measured after 24 hrs relative to control; assay type: ADME; settings: at 100 µg/mL
[4] = Drug recovery in Aedes aegypti larval extract by HPLC analysis; assay type: ADME; settings: 24 h
[5] = Drug recovery in Aedes aegypti supernatant measured after 24 hrs by HPLC analysis; assay type: ADME
[6] = Retention time of the compound; assay type: physicochemical
[7] = Toxicity in Aedes aegypti assessed as rigid and elongated exoskeleton at 50 ug/ml; settings: dose 50 µg/ml
[8] = Toxicity in Aedes aegypti assessed as translucent in anal papillae at 50 ug/ml; settings: dose 50 µg/ml
[9] = Toxicity in Aedes aegypti assessed as modifications in anal papillae at 50 ug/ml; settings: dose 50 µg/ml
[10] = Toxicity in Aedes aegypti assessed as appearance of dark spots in siphon region at 50 ug/ml; settings: dose 50 µg/ml
[11] = Toxicity in Aedes aegypti assessed as reduction in body mass at 50 ug/ml; settings: dose 50 µg/ml
[12] = Toxicity in Aedes aegypti assessed as appearance of dark spots in intestine region at 50 ug/ml; assay type: tissue-based; settings: dose 50 µg/ml
[13] = Toxicity in Aedes aegypti assessed as abdomen curvature at 50 ug/ml; settings: dose 50 µg/ml
[14] = Toxicity in Aedes aegypti assessed as appearance of dark spots in thorax region at 50 ug/ml; settings: dose 50 µg/ml

SMILES	mortality [1] [%]	LC10 [2] [µg/mL]	LC50 [2] [µg/mL]	LC90 [2] [µg/mL]	mortality [3] [%]	also measured
O=C(O)/C=C/c1ccc(C(F)(F)F)cc1	0	87.7 (≈ 406 µM)	97.6 (≈ 452 µM)	108.6 (≈ 502 µM)	56.7	–
O=C(O)/C=C/c1ccc(Cl)cc1	95	16.2 (≈ 88.7 µM)	26 (≈ 142 µM)	41.8 (≈ 229 µM)	100	Drug recovery [4]: 2.7143 µg/mL; Drug recovery [5]: 3.8191 µg/mL; Retention_time [6]: 3.32 min
CCOC(=O)/C=C/c1ccc([N+](=O)[O-])cc1	98.3	21.3 (≈ 96.3 µM)	35.7 (≈ 161 µM)	60 (≈ 271 µM)	–	–
CCOC(=O)/C=C/c1ccc(N(C)C)cc1	–	–	–	–	6.7	–
CCOC(=O)/C=C/c1ccc(C(F)(F)F)cc1	98.3	11.1 (≈ 45.5 µM)	21.6 (≈ 88.4 µM)	42.2 (≈ 173 µM)	–	–
CCOC(=O)/C=C/c1ccc(C#N)cc1	8.3	–	–	–	–	–
CCOC(=O)/C=C/c1ccc(OC(F)(F)F)cc1	93.3	19.6 (≈ 75.3 µM)	31.3 (≈ 120 µM)	50 (≈ 192 µM)	–	–
CCOC(=O)/C=C/C=C/c1ccccc1	93.3	10 (≈ 49.4 µM)	19.7 (≈ 97.4 µM)	38.8 (≈ 192 µM)	–	–
O=C(O)/C=C/c1ccc(OC(F)(F)F)cc1	–	–	–	–	40	–
CCOC(=O)/C=C/c1ccc(C(C)(C)C)cc1	40	–	–	–	–	–
CCOC(=O)/C=C/c1ccc(F)cc1	83.3	24 (≈ 124 µM)	32.2 (≈ 166 µM)	43.2 (≈ 222 µM)	–	–
CCOC(=O)/C=C/c1ccc(Br)cc1	100	18.9 (≈ 74.1 µM)	25.1 (≈ 98.4 µM)	33.3 (≈ 131 µM)	–	–
O=C(O)/C=C/c1ccc(Br)cc1	36.7	31.7 (≈ 140 µM)	54.4 (≈ 240 µM)	93.2 (≈ 410 µM)	93.3	–
O=C(O)/C=C/c1ccc([N+](=O)[O-])cc1	86.7	29 (≈ 150 µM)	37.1 (≈ 192 µM)	47.5 (≈ 246 µM)	96.7	–
O=C(O)/C=C/c1ccc(F)cc1	–	–	–	–	0	–
CCOC(=O)/C=C/c1ccc(OC)cc1 [4-METHOXY ETHYL CINNAMATE]	80	18.2 (≈ 88.2 µM)	26.9 (≈ 130 µM)	39.7 (≈ 192 µM)	–	–
COc1ccc(/C=C/C(=O)O)cc1 [4-METHOXYCINNAMIC ACID]	0	–	–	–	–	–
O=C(O)/C=C/c1ccccc1 [CINNAMIC ACID]	0	–	–	–	28.3	–
CCOC(=O)/C=C/c1ccc(Cl)cc1Cl [ETHYL 3-(2,4-DICHLOROPHENYL)ACRYLATE]	86.7	10.2 (≈ 41.6 µM)	23.6 (≈ 96.3 µM)	54.8 (≈ 224 µM)	–	–
CCOC(=O)/C=C/c1ccc(Cl)cc1 [ETHYL 3-(4-CHLOROPHENYL)ACRYLATE]	100	3.5 (≈ 16.6 µM)	8.3 (≈ 39.4 µM)	19.7 (≈ 93.5 µM)	–	Drug recovery [4]: 8.2531 µg/mL; Drug recovery [5]: 10.8746 µg/mL; Retention_time [6]: 3.61 min; Activity [7]: Toxic; Activity [8]: Toxic; Activity [9]: Toxic; Activity [10]: Toxic; Activity [11]: Toxic; Activity [12]: Toxic; Activity [13]: Toxic; Activity [14]: Toxic
CCOC(=O)/C=C/c1ccccc1 [ETHYL CINNAMATE]	95	30.4 (≈ 173 µM)	35.6 (≈ 202 µM)	41.7 (≈ 237 µM)	–	–
CCOC(=O)/C=C/c1ccc(O)cc1 [ETHYL P-COUMARATE]	0	–	–	–	–	–
COP(=S)(OC)Oc1ccc(Sc2ccc(OP(=S)(OC)OC)cc2)cc1 [TEMEFOS]	–	1.8 (≈ 3.86 µM)	4.4 (≈ 9.43 µM)	10.4 (≈ 22.3 µM)	–	–
